The results in this text go back to patent US20240269115A1, “PYRAZOLONE COMPOUNDS FOR USE IN DEGENERATIVE RETINAL DISEASES” (FLONEXT S.R.L., priority 2021, published 2024).

The test system of test [1] is NalO3-induced increase in retinal 4-hydroxynonenal (4-HNE) in macular degeneration model mice. The test is described as follows: Retinal oxidative stress by 4-HNE immunofluorescence in the NalO3 mouse model of macular degeneration. Type of test: in vivo, C57BL/6J male mice. To be noted: eye drops 5 μl 3 times a day, days 1-3 (dipyrone 16.65 μg, propyphenazone 11.5 μg, indomethacin 17.85 μg); NalO3 20 mg/kg retro-orbital vein; retina collected day 4; mean±SEM. The method, then: (§1) To create a valid model of macular degeneration, systemic administration (via the retro-orbital vein) of NalO3 was carried out in C57BL/6J male mice aged 5-8 weeks and weighing 22-25 g supplied by the Charles River company (Milan, Italy). A total of 30 mice were used to carry out the experiments described below. The animals were kept in a temperature and humidity-controlled environment (12-hour dark/light cycle, free access to food and water).
(§2) As described above, the mouse model obtained by systemic administration (via the retro-orbital vein) of NalO3 is a model of macular degeneration. In fact, 3 days after administration, NalO3 induced in mice persistent retinal damage with characteristics similar to those observed in age-related macular degeneration in humans.
(§3) In order to evaluate the efficacy of dipyrone and propyphenazone, preferred compounds belonging to the pyrazolone class, in reducing and treating the retinal damage typical of macular degeneration, a model of macular degeneration was developed with an experiment on 5 groups of mice. The mice were administered dipyrone, propyphenazone, indomethacin or their vehicle, locally via eye drops.
(§4) In particular, a group of 6 mice (used as a control) were given vehicle (V1) (NaCl, 0.9%) of NalO3 (1 ml/kg) 60 minutes before the injection into the retro-orbital vein and subsequently given eye drops (5 μl) containing the vehicle (V2) (4% DMSO, 4% Tween 80 in 0.9% NaCl) of the drugs 3 times a day by instillation. […]
The level of oxidative stress was also assessed throughout the thickness of the retina by measuring the immunofluorescence intensity for the reactive carbonyl species, 4-hydroxynonenal (4-HNE), a final indicator of oxidative stress.
Levels of 4-HNE were quantified using a primary antibody (#ab48506, monoclonal mouse [HNEJ-2], 1:40, Abcam, Cambridge, UK) to which a second antibody (fluorophore-labelled, Alexa Fluor 594, #A A32742, Thermo Fisher Scientific) binds in the 5 groups of mice treated with V2/V1, V2/NalO3, dipyrone/NalO3, propyphenazone/NalO3 and indomethacin/NalO3. […]

In test [2] the test system is NalO3-induced damage of the RPE layer in macular degeneration model mice. The test is described as follows: Retinal pigment epithelium damage by RPE65 immunofluorescence in the NalO3 mouse model of macular degeneration. The format is in vivo, C57BL/6J male mice. Particulars: eye drops 5 μl 3 times a day, days 1-3 (dipyrone 16.65 μg, propyphenazone 11.5 μg, indomethacin 17.85 μg); NalO3 20 mg/kg retro-orbital vein; retina collected day 4; mean±SEM. The procedure: as §1, §2, §3, §4
Damage to the RPE (retinal pigmented epithelium) was assessed by direct immunofluorescence. […]
The staining intensity of the RPE layer was quantified using a primary antibody (RPE65, #ab13826, mouse monoclonal, 1:100, Abcam, Cambridge, UK) to which a second antibody (fluorophore-labelled, Alexa Fluor 488, #A28175, Thermo Fisher Scientific) binds in the 5 groups of mice treated with V2/V1, V2/NalO3, dipyrone/NalO3, propyphenazone/NalO and indomethacin/NalO3. […]

Regarding `COc1ccc2c(c1)c(CC(=O)O)c(C)n2C(=O)c1ccc(Cl)cc1` [indomethacin, Indomethacin], the “reduction in retinal 4-HNE levels (immunofluorescence) vs. V2” value (from here on “reduction in retinal 4-HNE levels”) in test [1] is listed as 17.5±10.5%. Further, in test [2], the “reduction of the damage induced by NalO3 on the RPE layer (RPE65 staining intensity) compared to V2” value (from here on “reduction of the damage induced by NalO3”) is reported as 5.7±14.9%.

As for `Cc1c(N(C)CS(=O)(=O)[O-])c(=O)n(-c2ccccc2)n1C.[Na+]` [dipyrone, Dipyrone], the “reduction in retinal 4-HNE levels” value in test [1] is on record as 69.7±11.8%. In addition, in test [2], the “reduction of the damage induced by NalO3” value came to 87.8±7.8%.

For `Cc1c(C(C)C)c(=O)n(-c2ccccc2)n1C` [propyphenazone, Propyphenazone], in test [1], the “reduction in retinal 4-HNE levels” value was 81.3±7.0%. The “reduction of the damage induced by NalO3” value in test [2] came out at 99.2±23.0%.
